According to ChEMBL document CHEMBL1147144, “Novel styrylpyridines as probes for SPECT imaging of amyloid plaques” (J Med Chem, 2007):

Target: Amyloid-beta precursor protein (Homo sapiens, UniProt P05067)
Assay: Displacement of […] from Abeta peptide plaques in Alzheimer's disease patient brain

Sequence of Amyloid-beta precursor protein (P05067 whole entry): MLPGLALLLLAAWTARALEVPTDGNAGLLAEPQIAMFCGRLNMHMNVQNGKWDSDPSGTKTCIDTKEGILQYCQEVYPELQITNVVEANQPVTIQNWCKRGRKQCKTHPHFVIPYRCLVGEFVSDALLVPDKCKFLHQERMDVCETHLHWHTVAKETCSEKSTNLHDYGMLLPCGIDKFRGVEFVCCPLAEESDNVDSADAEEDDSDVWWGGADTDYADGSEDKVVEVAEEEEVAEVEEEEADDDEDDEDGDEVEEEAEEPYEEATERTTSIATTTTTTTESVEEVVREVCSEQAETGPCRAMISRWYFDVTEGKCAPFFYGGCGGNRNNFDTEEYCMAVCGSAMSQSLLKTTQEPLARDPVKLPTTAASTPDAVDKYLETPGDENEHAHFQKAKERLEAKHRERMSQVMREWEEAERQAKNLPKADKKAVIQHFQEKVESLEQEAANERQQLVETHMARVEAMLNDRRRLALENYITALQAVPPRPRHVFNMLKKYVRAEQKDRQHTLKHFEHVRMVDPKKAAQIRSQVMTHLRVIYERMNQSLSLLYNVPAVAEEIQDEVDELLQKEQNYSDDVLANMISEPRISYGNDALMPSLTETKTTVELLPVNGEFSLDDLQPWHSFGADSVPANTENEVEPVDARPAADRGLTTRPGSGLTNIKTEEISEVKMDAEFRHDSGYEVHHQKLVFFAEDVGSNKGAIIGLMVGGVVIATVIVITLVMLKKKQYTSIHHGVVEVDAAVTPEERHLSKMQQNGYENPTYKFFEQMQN

Row | Compound | Ki [nM]
1 | OCCOc1ncc(C=Cc2ccc(O)cc2)cc1Br | 6.8
2 | CN(C)c1ccc(/C=C/c2cnc(OCCO)c(I)c2)cc1 | 7.5
3 | CNc1ccc(/C=C/c2cnc(OCCO)c(I)c2)cc1 | 8.5
4 | Oc1ccc(/C=C/c2cnc(OCCOCCOCCF)c(Br)c2)cc1 | 14.2
5 | CNc1ccc(/C=C/c2cnc(OCCO)c(Br)c2)cc1 | 5

Other lines, results leading:

Row | Ki [nM] | Compound
6 | 9 | CNc1ccc(/C=C/c2cnc(OCCOCCOCCF)c(I)c2)cc1
7 | 7.5 | CN(C)c1ccc(/C=C/c2cnc(OCCOCCOCCF)c(I)c2)cc1
8 | 6.8 | CN(C)c1ccc(/C=C/c2cnc(OCCOCCOCCF)c(Br)c2)cc1
